What was measured:
Assay type in all cases: in vivo, human
[1] = tested on: borderline diabetic patients; assay: Glucose tolerance test (75 g glucose), blood glucose level (plasma glucose concentration), double-blind crossover; settings: 10 mg oral, 35 borderline diabetic patients, p<0.05
Procedure: The following test was conducted to confirm that corosolic acid has a hypoglycemic effect. A glucose tolerance test was performed after administration of corosolic acid, banaba extract or a placebo, in a double-blind crossover manner, and the blood glucose level (plasma glucose concentration) was assayed.
First, 35 borderline diabetic patients as test subjects were orally administered corosolic acid (10 mg, >99% purity), banaba extract (trade name: COROSOLIA M, product of Use Techno Corporation; administered at 10 mg of corosolic acid) or a placebo, and blood was sampled immediately thereafter with the blood glucose level at that time designated as the value at 0 minutes. Immediately after blood sampling, 75 g of glucose was orally administered to each test subject to start a glucose tolerance test, and blood was sampled after periods of 30 minutes, 60 minutes, 90 minutes, 120 minutes and 180 minutes for measurement of the blood glucose level.
FIG. 2 is a graph showing blood glucose levels during the glucose tolerance test. The horizontal axis represents time (min) after start of the glucose tolerance test, and the vertical axis represents plasma glucose concentration (mg/dL). In the graph, (c) is a case with administration of corosolic acid, (d) is a case with administration of banaba leaf extract and (e) is a case with administration of the placebo.

[2] = tested on: borderline diabetic patients; assay: Blood glucose and blood insulin levels after administration in the absence of glucose load (fasted), crossover double-blind; settings: single 10 mg dose; for blood glucose level (G) / blood insulin level (I): fasted, no glucose load; for blood insulin level (I): unit assumed
Procedure: Three borderline diabetic patients (person, person and person) were instructed to fast from 8:00 pm (to ensure absence of glucose load), and were administered a placebo once or the test agent (corosolic acid) once at 9:00 am on the following day, after which the changes in blood glucose level and blood insulin level were measured. The participants were given absolutely no information regarding placebo or test agent (crossover, double-blind). The corosolic acid was administered in a single 10 mg dose, and each test was conducted twice.
FIG. 3 is a graph showing changes in blood glucose levels with administration of corosolic acid and a placebo in the absence of a glucose load, and FIG. 4 is a graph showing changes in blood insulin levels with administration of corosolic acid and a placebo in the absence of a glucose load.

[3] = tested on: borderline diabetic patients; assay: Glucose tolerance test (75 g glucose), blood insulin level (IRI), double-blind crossover; settings: 10 mg oral, 31 borderline diabetic patients, p<0.05
Procedure: A glucose tolerance test was performed after administration of corosolic acid or a placebo, in a double-blind crossover manner, and the blood insulin level (IRI: immunoreactive insulin) was assayed.
First, 31 borderline diabetic patients as test subjects were orally administered corosolic acid (10 mg, >99% purity) or a placebo, and blood was sampled immediately thereafter with the blood insulin level at that time designated as the value at 0 minutes. Immediately after blood sampling, 75 g of glucose was orally administered to each test subject to start a glucose tolerance test, and blood was sampled after periods of 30 minutes, 60 minutes, 90 minutes, 120 minutes and 180 minutes for measurement of the blood insulin level.
FIG. 1 is a graph showing the blood insulin levels during the glucose tolerance test. The horizontal axis represents time (min) after start of the glucose tolerance test, and the vertical axis represents IRI (μU/mL). In the graph, (a) is a case with administration of corosolic acid and (b) is a case with administration of the placebo.

[4] = 120 minutes after start of glucose tolerance test

For C[C@H]1[C@H](C)CC[C@]2(C(=O)O)CC[C@]3(C)C(=CC[C@@H]4[C@@]5(C)C[C@@H](O)[C@H](O)C(C)(C)[C@@H]5CC[C@]43C)[C@H]12 [corosolic acid], the “blood glucose level compared to placebo” value ([1]; 90 minutes after start of glucose tolerance test) was “significant decrease”, the “blood glucose level compared to placebo” value [1, 4] was “significant decrease” and the “blood glucose levels, corosolic acid versus placebo” value ([2]; absence of glucose load, FIG. 3) was “no significant difference”. For the same molecule, the “blood insulin levels, corosolic acid versus placebo” value ([2]; absence of glucose load, FIG. 4) was “no significant difference”, the blood glucose level (G) ([2]; participant A, after 0 min) was 110 mg/dL and the blood insulin level (I) ([2]; participant A, after 0 min) was 9 µU/mL. The blood glucose level (G) ([2]; participant A, after 30 min) was 104 mg/dL, the blood insulin level (I) ([2]; participant A, after 30 min) was 6.9 µU/mL and the blood glucose level (G) ([2]; participant A, after 60 min) was 107 mg/dL. For the same molecule, the blood insulin level (I) ([2]; participant A, after 60 min) was 6.6 µU/mL, the blood glucose level (G) ([2]; participant A, after 90 min) was 104 mg/dL and the blood insulin level (I) ([2]; participant A, after 90 min) was 5.9 µU/mL. For the same molecule, the blood glucose level (G) ([2]; participant A, after 120 min) was 104 mg/dL, the blood insulin level (I) ([2]; participant A, after 120 min) was 6.6 µU/mL and the blood glucose level (G) ([2]; participant A, after 180 min) was 102 mg/dL. The blood insulin level (I) ([2]; participant A, after 180 min) was 5.1 µU/mL, the blood glucose level (G) ([2]; participant B, after 0 min) was 144 mg/dL and the blood insulin level (I) ([2]; participant B, after 0 min) was 2.5 µU/mL. For the same molecule, the blood glucose level (G) ([2]; participant B, after 30 min) was 143 mg/dL, the blood insulin level (I) ([2]; participant B, after 30 min) was 2.6 µU/mL and the blood glucose level (G) ([2]; participant B, after 60 min) was 147 mg/dL. The blood insulin level (I) ([2]; participant B, after 60 min) was 3 µU/mL, the blood glucose level (G) ([2]; participant B, after 90 min) was 149 mg/dL and the blood insulin level (I) ([2]; participant B, after 90 min) was 2 µU/mL. For the same molecule, the blood glucose level (G) ([2]; participant B, after 120 min) was 150 mg/dL, the blood insulin level (I) ([2]; participant B, after 120 min) was 3.4 µU/mL and the blood glucose level (G) ([2]; participant B, after 180 min) was 146 mg/dL. It also gave a blood insulin level (I) ([2]; participant B, after 180 min) of 2.4 µU/mL, a blood glucose level (G) ([2]; participant C, after 0 min) of 90 mg/dL and a blood insulin level (I) ([2]; participant C, after 0 min) of 4.5 µU/mL. The blood glucose level (G) ([2]; participant C, after 30 min) was 90 mg/dL, the blood insulin level (I) ([2]; participant C, after 30 min) was 4.1 µU/mL and the blood glucose level (G) ([2]; participant C, after 60 min) was 88 mg/dL. For the same molecule, the blood insulin level (I) ([2]; participant C, after 60 min) was 3.9 µU/mL, the blood glucose level (G) ([2]; participant C, after 90 min) was 86 mg/dL and the blood insulin level (I) ([2]; participant C, after 90 min) was 4.9 µU/mL. It also gave a blood glucose level (G) ([2]; participant C, after 120 min) of 86 mg/dL, a blood insulin level (I) ([2]; participant C, after 120 min) of 4 µU/mL and a blood glucose level (G) ([2]; participant C, after 180 min) of 81 mg/dL. The blood insulin level (I) ([2]; participant C, after 180 min) was 4 µU/mL, the “blood insulin level compared to placebo” value ([3]; 30 minutes after start of glucose tolerance test) was “significant increase” and the “blood insulin level compared to placebo” value [3, 4] was “significant drop”.

Reference: patent publication US20050137259A1, “Insulin secretion potentiator” (Use- Techno Corporation, priority 2003, published 2005)
